From patent US12077503B2, “Substituted cyclic amides and their use as herbicides” (FMC CORPORATION, priority 2015, dated 2024)

Tests used:
Type in all cases: in vivo
[1] = system: ryegrass, Italian (Italian ryegrass, Lolium multiflorum); experiment: Test A postemergence; settings: Lolium multiflorum, post-emergence, 240 h, Postemergence, read-out: Ryegrass, Italian plant response rating (0 to 100 scale); for pest or weed control at 125 g/ha: 125 g ai/ha, visual rating about 10 d after treatment; for pest or weed control at 31 g/ha: 31 g ai/ha, 0 is no effect, 100 is complete control
How it was run: (§1)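 Ratings of 0 (no effect) to 100 (complete control) come from visual comparison with untreated controls roughly 10 d after treatment. Test chemicals, formulated in a non-phytotoxic solvent mixture with surfactant, were applied either as a preemergence directed soil spray on seeded soil or postemergence to one- to two-leaf plants 2 to 10 cm tall.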

[2] = system: wheat (Triticum aestivum); experiment: Test A postemergence; settings: Triticum aestivum, post-emergence, 240 h, Postemergence, read-out: Wheat plant response rating (0 to 100 scale); for plant injury at 125 g/ha: 125 g ai/ha, visual rating about 10 d after treatment; for plant injury at 31 g/ha: 31 g ai/ha, 0 is no effect, 100 is complete control
How it was run: as §1

[3] = system: barnyardgrass (Echinochloa crus-galli); experiment: Test A postemergence; settings: Echinochloa crus-galli, post-emergence, 240 h, Postemergence; for pest or weed control at 125 g/ha: 125 g ai/ha, visual rating about 10 d after treatment, read-out: Barnyardgrass plant response rating (0 to 100 scale, 0 no effect, 100 complete control); for pest or weed control at 31 g/ha: 31 g ai/ha, 0 is no effect, 100 is complete control, read-out: Barnyardgrass plant response rating (0 to 100 scale)
How it was run: as §1

corn (Zea mays) = experiment: Test A postemergence; settings: Zea mays, post-emergence, 240 h, Postemergence, read-out: Corn plant response rating (0 to 100 scale); for plant injury at 125 g/ha: 125 g ai/ha, visual rating about 10 d after treatment; for plant injury at 31 g/ha: 31 g ai/ha, 0 is no effect, 100 is complete control
How it was run: as §1

Kochia (Kochia scoparia) [4] = experiment: Test A postemergence; settings: Bassia scoparia, post-emergence, 240 h, Postemergence, read-out: Kochia plant response rating (0 to 100 scale); for pest or weed control at 125 g/ha: 125 g ai/ha, visual rating about 10 d after treatment; for pest or weed control at 31 g/ha: 31 g ai/ha, 0 is no effect, 100 is complete control
How it was run: as §1

[5] = system: ragweed (common ragweed, Ambrosia elatior); experiment: Test A postemergence; settings: Ambrosia artemisiifolia, post-emergence, 240 h, Postemergence, read-out: Ragweed plant response rating (0 to 100 scale); for pest or weed control at 125 g/ha: 125 g ai/ha, visual rating about 10 d after treatment; for pest or weed control at 31 g/ha: 31 g ai/ha, 0 is no effect, 100 is complete control
How it was run: as §1

[6] = system: pigweed (Amaranthus retroflexus); experiment: Test A postemergence; settings: Amaranthus retroflexus, post-emergence, 240 h, Postemergence, read-out: Pigweed plant response rating (0 to 100 scale); for pest or weed control at 125 g/ha: 125 g ai/ha, visual rating about 10 d after treatment; for pest or weed control at 31 g/ha: 31 g ai/ha, 0 is no effect, 100 is complete control
How it was run: as §1

[7] = system: blackgrass (Alopecurus myosuroides); experiment: Test A postemergence; settings: Alopecurus myosuroides, post-emergence, 240 h, Postemergence, read-out: Blackgrass plant response rating (0 to 100 scale); for pest or weed control at 125 g/ha: 125 g ai/ha, visual rating about 10 d after treatment; for pest or weed control at 31 g/ha: 31 g ai/ha, 0 is no effect, 100 is complete control
How it was run: as §1

[8] = system: giant foxtail (Setaria faberii); experiment: Test A postemergence; settings: Setaria faberi, post-emergence, 240 h, Postemergence, read-out: Foxtail, Giant plant response rating (0 to 100 scale); for pest or weed control at 125 g/ha: 125 g ai/ha, visual rating about 10 d after treatment; for pest or weed control at 31 g/ha: 31 g ai/ha, 0 is no effect, 100 is complete control
How it was run: as §1

[9] = system: barnyardgrass (Echinochloa crus-galli); experiment: Test B flooded paddy test; settings: Echinochloa crus-galli, 360 h, Flood, 250 g ai/ha; visually evaluated after 13 to 15 d; read-out: Plant response rating, Barnyardgrass (0 to 100 scale where 0 is no effect and 100 is complete control)
How it was run: (§2)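 Rating scale 0–100 (visual, vs untreated controls) after a 13–15 d greenhouse period; application to the flood layer, 3 cm above soil and maintained; plants at 2-leaf stage when treated.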

[10] = system: sedge, umbrella (small-flower umbrella sedge, Cyperus difformis); experiment: Test B flooded paddy test; settings: Cyperus difformis, 360 h, Flood, 250 g ai/ha; visually evaluated after 13 to 15 d; read-out: Plant response rating, Sedge, Umbrella (0 to 100 scale where 0 is no effect and 100 is complete control)
How it was run: as §2

[11] = system: ducksalad (Heteranthera limosa); experiment: Test B flooded paddy test; settings: Heteranthera limosa, 360 h, Flood, 250 g ai/ha; visually evaluated after 13 to 15 d; read-out: Plant response rating, Ducksalad (0 to 100 scale where 0 is no effect and 100 is complete control)
How it was run: as §2

rice (Oryra sativa) = experiment: Test B flooded paddy test; settings: Oryza sativa, 360 h, Flood, 250 g ai/ha; visually evaluated after 13 to 15 d; read-out: Plant response rating, Rice (0 to 100 scale where 0 is no effect and 100 is complete control)
How it was run: as §2

[12] = system: ryegrass, Italian (Italian ryegrass, Lolium multiflorum); experiment: Test A preemergence; settings: Lolium multiflorum, pre-emergence, 240 h, Preemergence; for pest or weed control at 31 g/ha: 31 g ai/ha, 0 to 100 scale where 0 is no effect and 100 is complete control, read-out: Ryegrass, Italian plant response rating; for pest or weed control at 125 g/ha: 125 g ai/ha, 0 to 100 scale (0 no effect, 100 complete control), read-out: Plant response rating, Ryegrass, Italian
How it was run: as §1

[13] = system: barnyardgrass (Echinochloa crus-galli); experiment: Test A preemergence; settings: Echinochloa crus-galli, pre-emergence, 240 h, Preemergence; for pest or weed control at 31 g/ha: 31 g ai/ha, 0 to 100 scale where 0 is no effect and 100 is complete control, read-out: Barnyardgrass plant response rating; for pest or weed control at 125 g/ha: 125 g ai/ha, 0 to 100 scale (0 no effect, 100 complete control), read-out: Plant response rating, Barnyardgrass
How it was run: as §1

Kochia (Kochia scoparia) [14] = experiment: Test A preemergence; settings: Bassia scoparia, pre-emergence, 240 h, Preemergence; for pest or weed control at 31 g/ha: 31 g ai/ha, 0 to 100 scale where 0 is no effect and 100 is complete control, read-out: Kochia plant response rating; for pest or weed control at 125 g/ha: 125 g ai/ha, 0 to 100 scale (0 no effect, 100 complete control), read-out: Plant response rating, Kochia
How it was run: as §1

[15] = system: ragweed (common ragweed, Ambrosia elatior); experiment: Test A preemergence; settings: Ambrosia artemisiifolia, pre-emergence, 240 h, Preemergence; for pest or weed control at 31 g/ha: 31 g ai/ha, 0 to 100 scale where 0 is no effect and 100 is complete control, read-out: Ragweed plant response rating; for pest or weed control at 125 g/ha: 125 g ai/ha, 0 to 100 scale (0 no effect, 100 complete control), read-out: Plant response rating, Ragweed
How it was run: as §1

[16] = system: pigweed (Amaranthus retroflexus); experiment: Test A preemergence; settings: Amaranthus retroflexus, pre-emergence, 240 h, Preemergence; for pest or weed control at 31 g/ha: 31 g ai/ha, 0 to 100 scale where 0 is no effect and 100 is complete control, read-out: Pigweed plant response rating; for pest or weed control at 125 g/ha: 125 g ai/ha, 0 to 100 scale (0 no effect, 100 complete control), read-out: Plant response rating, Pigweed
[17] = system: giant foxtail (Setaria faberii); experiment: Test A preemergence; settings: Setaria faberi, pre-emergence, 240 h, Preemergence
How it was run: as §1

[18] = system: Galium (catchweed bedstraw, Galium aparine); experiment: Test A postemergence; settings: Galium, post-emergence, 240 h, Postemergence, read-out: Galium plant response rating (0 to 100 scale)
How it was run: as §1

| SMILES | pest or weed control at 125 g/ha [1] [%] | pest or weed control at 31 g/ha [1] [%] | plant injury at 125 g/ha [2] [%] | plant injury at 31 g/ha [2] [%] | pest or weed control at 125 g/ha [3] [%] | pest or weed control at 31 g/ha [3] [%] | plant injury at 125 g/ha (corn (Zea mays)) [%] | plant injury at 31 g/ha (corn (Zea mays)) [%] | pest or weed control at 125 g/ha (Kochia (Kochia scoparia) [4]) [%] | pest or weed control at 31 g/ha (Kochia (Kochia scoparia) [4]) [%] | pest or weed control at 125 g/ha [5] [%] | pest or weed control at 31 g/ha [5] [%] | pest or weed control at 125 g/ha [6] [%] | pest or weed control at 31 g/ha [6] [%] | pest or weed control at 125 g/ha [7] [%] | pest or weed control at 31 g/ha [7] [%] | pest or weed control at 125 g/ha [8] [%] | pest or weed control at 31 g/ha [8] [%] | pest or weed control at 31 g/ha [12] [%] | pest or weed control at 125 g/ha [12] [%] | further results |
| --- | --- | --- | --- | --- | --- | --- | --- | --- | --- | --- | --- | --- | --- | --- | --- | --- | --- | --- | --- | --- | --- |
| CN1C[C@H](c2ccc3c(c2)OC(F)(F)O3)[C@@H](C(=O)Nc2ccccc2C(F)(F)F)C1=O [Compound 1352] | 0 | 0 | 20 | 0 | 60 | 60 | 0 | 0 | 0 | 0 | 0 | 0 | 0 | 0 | 30 | 0 | 80 | 60 | 0 | 40 | pest or weed control at 250 g/ha [9]: 60%; pest or weed control at 250 g/ha [10]: 0%; pest or weed control at 250 g/ha [11]: 70%; pest or weed control at 250 g/ha (rice (Oryra sativa)): 0%; pest or weed control at 31 g/ha [13]: 80%; pest or weed control at 125 g/ha [13]: 90%; pest or weed control at 31 g/ha (Kochia (Kochia scoparia) [14]): 20%; pest or weed control at 125 g/ha (Kochia (Kochia scoparia) [14]): 60%; pest or weed control at 31 g/ha [15]: 0%; pest or weed control at 125 g/ha [15]: 30%; pest or weed control at 31 g/ha [16]: 0%; pest or weed control at 125 g/ha [16]: 80%; pest or weed control at 31 g/ha ([17]; 31 g ai/ha, 0 to 100 scale where 0 is no effect and 100 is complete control, read-out: Foxtail, Giant plant response rating): 100%; pest or weed control at 125 g/ha ([17]; 125 g ai/ha, 0 to 100 scale (0 no effect, 100 complete control), read-out: Plant response rating, Foxtail, Giant): 100% |
| CN1C[C@H](c2csc3c2CCC(F)(F)C3)[C@@H](C(=O)Nc2ccccc2S(C)(=O)=O)C1=O (racemic) [Compound 1367] | 0 | 0 | 0 | 0 | 30 | 0 | 0 | 0 | 0 | 0 | 0 | 0 | 20 | 0 | 0 | 0 | 30 | 0 | 0 | 0 | pest or weed control at 125 g/ha ([18]; 125 g ai/ha, visual rating about 10 d after treatment): 0%; pest or weed control at 31 g/ha ([18]; 31 g ai/ha, 0 is no effect, 100 is complete control): 0%; pest or weed control at 31 g/ha [13]: 0%; pest or weed control at 125 g/ha [13]: 80%; pest or weed control at 31 g/ha (Kochia (Kochia scoparia) [14]): 0%; pest or weed control at 125 g/ha (Kochia (Kochia scoparia) [14]): 0%; pest or weed control at 31 g/ha [15]: 0%; pest or weed control at 125 g/ha [15]: 0%; pest or weed control at 31 g/ha [16]: 0%; pest or weed control at 125 g/ha [16]: 0% |
